According to article PMC9250511, “Metabolomics-guided discovery of cytochrome P450s involved in pseudotropine-dependent biosynthesis of modified tropane alkaloids” (Nature Communications, 2022):

Tests used:
AbP450-116623 = target: T1, AbP450-116623 (Atropa belladonna, UniProt A0A3G4RHW9); test: transient expression in N. benthamiana leaves, UHPLC/HRMS of products; assay type: cell-based; conditions: 1 mM substrate hydrochloride infiltrated in leaf, 2 days; ring-hydroxylation at carbon adjacent to ring nitrogen (isomer 1)
T1 construct: full-length ORF in pEAQ-HT-DEST1, transiently produced in Nicotiana benthamiana leaves

AbP450-5021 = target: T2, AbP450-5021 (Atropa belladonna, UniProt A0A3G4RHX1); test: as above; assay type: cell-based; conditions: 1 mM substrate hydrochloride infiltrated in leaf, 2 days
T2 construct: full-length ORF in pEAQ-HT-DEST1, transiently produced in Nicotiana benthamiana leaves
T2 sequence (A0A3G4RHX1 entry or part of it): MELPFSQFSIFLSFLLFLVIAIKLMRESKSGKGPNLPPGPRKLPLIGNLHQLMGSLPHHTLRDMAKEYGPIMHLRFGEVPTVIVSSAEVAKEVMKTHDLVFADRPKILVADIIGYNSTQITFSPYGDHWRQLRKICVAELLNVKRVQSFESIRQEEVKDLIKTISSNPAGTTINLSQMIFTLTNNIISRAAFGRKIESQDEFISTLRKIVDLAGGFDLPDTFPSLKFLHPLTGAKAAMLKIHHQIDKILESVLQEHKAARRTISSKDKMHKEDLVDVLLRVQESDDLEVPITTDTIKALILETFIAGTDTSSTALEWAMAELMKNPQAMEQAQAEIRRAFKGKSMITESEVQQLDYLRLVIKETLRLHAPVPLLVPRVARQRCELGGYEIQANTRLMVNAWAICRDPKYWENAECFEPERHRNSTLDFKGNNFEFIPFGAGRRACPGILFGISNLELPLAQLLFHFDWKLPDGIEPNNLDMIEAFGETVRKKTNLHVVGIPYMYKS

T1 sequence (A0A3G4RHW9 entry or part of it): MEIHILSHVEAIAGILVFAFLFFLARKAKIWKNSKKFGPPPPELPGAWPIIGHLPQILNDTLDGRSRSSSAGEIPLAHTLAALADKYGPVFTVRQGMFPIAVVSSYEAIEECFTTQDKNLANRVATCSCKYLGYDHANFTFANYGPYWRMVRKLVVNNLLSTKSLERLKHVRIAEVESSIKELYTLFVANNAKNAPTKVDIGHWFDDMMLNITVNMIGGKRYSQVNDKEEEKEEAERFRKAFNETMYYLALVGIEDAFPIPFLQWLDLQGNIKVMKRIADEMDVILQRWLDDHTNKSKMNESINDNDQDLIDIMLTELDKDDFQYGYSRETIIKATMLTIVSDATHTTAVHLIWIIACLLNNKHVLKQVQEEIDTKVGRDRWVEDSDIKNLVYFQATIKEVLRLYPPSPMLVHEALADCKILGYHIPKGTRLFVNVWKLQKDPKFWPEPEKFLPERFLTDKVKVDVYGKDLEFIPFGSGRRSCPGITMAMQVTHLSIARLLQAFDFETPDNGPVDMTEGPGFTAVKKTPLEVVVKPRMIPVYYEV

SMILES	transient expression in N. benthamiana leaves, UHPLC/HRMS of products (AbP450-116623)	transient expression in N. benthamiana leaves, UHPLC/HRMS of products (AbP450-5021; ring-hydroxylation next to the esterified carbon (isomer 2))	transient expression in N. benthamiana leaves, UHPLC/HRMS of products (AbP450-5021; N-demethylation to tigloyl norpseudotropine, then ring-hydroxylation (isomer 2))
C/C=C(\C)C(=O)O[C@@H]1C[C@H]2CC[C@@H](C1)N2 [compound 21, tigloyl norpseudotropine]	Assays with AbP450-116623 alone and N-demethylated tigloyl norpseudotropine as substrate yielded tigloyl hydroxynorpseudotropine	producing AbP450-5021 alone using either tigloyl pseudotropine or tigloyl norpseudotropine as substrate	–
C/C=C(\C)C(=O)OC1CC2CCC(C1)N2C (stereo not drawn) [compound 6, tigloyl pseudotropine]	–	–	producing AbP450-5021 alone using either tigloyl pseudotropine or tigloyl norpseudotropine as substrate
